Our source for the Ki values is patent US12559529B2, “NPY2 receptor agonists” (Boehringer Ingelheim International GmbH, priority 2019, dated 2026).

For this test, the target named is T1, Human Neuropeptide Y2 Receptor (Homo sapiens, UniProt P49146).
T1 construct: purchased CHEMICON HTS066M
T1 sequence (P49146 1-381): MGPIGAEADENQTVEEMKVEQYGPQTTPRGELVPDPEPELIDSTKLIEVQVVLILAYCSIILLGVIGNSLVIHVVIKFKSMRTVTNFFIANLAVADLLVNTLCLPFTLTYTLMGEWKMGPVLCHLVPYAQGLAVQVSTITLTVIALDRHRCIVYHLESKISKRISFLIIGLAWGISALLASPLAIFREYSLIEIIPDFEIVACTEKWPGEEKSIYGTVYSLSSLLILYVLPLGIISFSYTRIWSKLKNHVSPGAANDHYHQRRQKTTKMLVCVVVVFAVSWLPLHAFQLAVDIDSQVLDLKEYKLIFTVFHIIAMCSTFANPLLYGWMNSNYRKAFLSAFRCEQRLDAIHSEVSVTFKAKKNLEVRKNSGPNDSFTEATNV
Description: Radioligand binding competition assay (RLB). The note with it: Table 3; human 125I-PYY (1-36) 0.02 nM, Y2 receptor membranes; read-out: Ki. As to the method:
The filtration RLB assay was carried out in 96-well plates in a final volume of 100 μl per well. Freeze-dried test peptides were dissolved in 100% dimethyl sulfoxide (DMSO) to stock solutions of 1 mM and serial dilutions were performed in assay buffer (50 mM HEPES, 5 mM MgCl2, 1 mM CaCl2), pH 7.4) containing 0.2% ovalbumin. […] Next, 80 μL membranes (HTS066M, ChemiSCREEN™ Human Neuropeptide Y2 Receptor Membrane Preparation, CHEMICON) were added to each well to give a final protein concentration of 0.5 μg/well. The plates were sealed and incubated at room temperature for 2 hours in a plate shaker set at 400 rpm. The incubation was stopped by vacuum filtration onto 0.5% poly-ethylene amine (PEI) presoaked GF/C filters using a 96-well FilterMate™ harvester (Perkin Elmer) followed by four washes with 300 μl/well ice-cold wash buffer (50 mM HEPES, 500 mM NaCl, pH7.4). Filter plates were then dried for 60 min at room temperature and the bottom of the plates was sealed with backing tape UniFilter-96. Finally, 50 μl/well scintillation counter cocktail (Microscint20, Packard) was added and the radioactivity was counted in the Packard TopCount NXT scintillation counter. IC50 values (the half maximal inhibitory concentration of the agonist) were calculated by nonlinear regression analysis of sigmoidal dose-response curves.

One may read the pKi as −log10 of the Ki, conventionally taken in molar units.

pKi: −log10 of the molar value. *1 amine or outer side, *2 acyl side, *3 side chain or, on linkers, in order; H or OH if unused. Where a SMILES comes first, the peptide text is derived from it. Side-chain parts run from the residue outwards. The star is where a group is joined. C18 diacid = O=C(O)CCCCCCCCCCCCCCCCC(=O)*; γGlu = O=C(O)[C@H](CCC(=O)[*:2])N[*:1]; Isovaleryl = CC(C)CC(=O)*; AEEA = NCCOCCOCC(=O)O

`CC(C)CC(=O)N[C@@H](C)C(=O)N1CCC[C@H]1C(=O)N[C@@H](CCC(=O)O)C(=O)N[C@@H](CCCCNC(=O)COCCOCCNC(=O)COCCOCCNC(=O)CC[C@H](NC(=O)CCCCCCCCCCCCCCCCC(=O)O)C(=O)O)C(=O)N1CCC[C@H]1C(=O)N[C@@H](CCC(=O)O)C(=O)N[C@@H](CCC(=O)O)C(=O)N[C@@H](CC(=O)O)C(=O)N[C@@H](C)C(=O)N[C@@H](CCC(N)=O)C(=O)N1CCC[C@H]1C(=O)N[C@@H](CCC(=O)O)C(=O)N[C@@H](CCC(=O)O)C(=O)N[C@@H](CC(C)C)C(=O)N[C@@H](CCC(N)=O)C(=O)N[C@@H](CCC(=O)O)C(=O)N[C@@H](Cc1ccc(O)cc1)C(=O)N[C@@H](Cc1ccc(O)cc1)C(=O)N[C@H](C(=O)N[C@@H](CO)C(=O)N[C@@H](CC(C)C)C(=O)N[C@@H](CCCNC(=N)N)C(=O)N[C@@H](Cc1c[nH]cn1)C(=O)N[C@@H](Cc1ccc(O)cc1)C(=O)N[C@@H](Cc1ccc(O)cc1)C(=O)N[C@@H](CC(N)=O)C(=O)N[C@@H](Cc1c[nH]c2ccccc12)C(=O)N[C@@H](CC(C)C)C(=O)N[C@H](C(=O)N[C@@H](CCCNC(=N)N)C(=O)N[C@@H](CCC(N)=O)C(=O)N[C@@H](CCCNC(=N)N)C(=O)N[C@@H](Cc1ccc(O)cc1)C(N)=O)[C@@H](C)O)C(C)C` [Compound 1, N{alpha-4}-(3-methylbutanoyl)-N{epsilon-7}-[2-(2-{2-[2-(2-{2-[(4S)-4-carboxy-4-(17-carboxyheptadecanamido)butanamido]ethoxy}ethoxy)acetamido]ethoxy}ethoxy)acetamido]-[4A,7K,9E,13Q,18Q,19E,22V,28Y,30W,31L]hPYY (4-36)] (Isovaleryl-APEK([AEEA-AEEA-γGlu-C18 diacid])PEEDAQPEELQEYYVSLRHYYNWLTRQRY-NH2): the pKi is 8.60.
With `CC(C)CC(=O)N[C@@H](C)C(=O)N1CCC[C@H]1C(=O)N[C@@H](CCC(=O)O)C(=O)N[C@@H](CCCCNC(=O)COCCOCCNC(=O)COCCOCCNC(=O)CC[C@H](NC(=O)CCCCCCCCCCCCCCCCC(=O)O)C(=O)O)C(=O)N1CCC[C@H]1C(=O)N[C@@H](CCC(=O)O)C(=O)N[C@@H](CCC(=O)O)C(=O)N[C@@H](CC(=O)O)C(=O)N[C@@H](C)C(=O)N[C@@H](CO)C(=O)N1CCC[C@H]1C(=O)N[C@@H](CCC(=O)O)C(=O)N[C@@H](CCC(=O)O)C(=O)N[C@@H](CC(C)C)C(=O)N[C@@H](CCC(N)=O)C(=O)N[C@@H](CCCNC(=N)N)C(=O)N[C@@H](Cc1ccc(O)cc1)C(=O)N[C@@H](Cc1ccc(O)cc1)C(=O)N[C@H](C(=O)N[C@@H](CO)C(=O)N[C@@H](CC(C)C)C(=O)N[C@@H](CCCNC(=N)N)C(=O)N[C@@H](Cc1c[nH]cn1)C(=O)N[C@@H](Cc1ccc(O)cc1)C(=O)N[C@@H](Cc1ccc(O)cc1)C(=O)N[C@@H](CC(N)=O)C(=O)N[C@@H](Cc1c[nH]c2ccccc12)C(=O)N[C@@H](CC(C)C)C(=O)N[C@@H](CCC(N)=O)C(=O)N[C@@H](CCCNC(=N)N)C(=O)N[C@@H](CCC(N)=O)C(=O)N[C@@H](CCCNC(=N)N)C(=O)N[C@@H](Cc1ccc(O)cc1)C(N)=O)C(C)C` [Compound 4, N{alpha-4}-(3-methylbutanoyl)-N{epsilon-7}-[2-(2-{2-[2-(2-{2-[(4S)-4-carboxy-4-(17-carboxyheptadecanamido)butanamido]ethoxy}ethoxy)acetamido]ethoxy}ethoxy)acetamido]-[4A,7K,9E,18Q,22V,28Y,30W,31L,32Q]hPYY (4-36)] the figure was 8.84; with `CC(C)CC(=O)N[C@@H](C)C(=O)N1CCC[C@H]1C(=O)N[C@@H](CCC(=O)O)C(=O)N[C@@H](CCCCNC(=O)COCCOCCNC(=O)COCCOCCNC(=O)CC[C@H](NC(=O)CCCCCCCCCCCCCCCCC(=O)O)C(=O)O)C(=O)N1CCC[C@H]1C(=O)N[C@@H](CCC(=O)O)C(=O)N[C@@H](CCC(=O)O)C(=O)N[C@@H](CCC(=O)O)C(=O)N[C@H](C(=O)N[C@@H](CO)C(=O)N1CCC[C@H]1C(=O)N[C@@H](CCC(=O)O)C(=O)N[C@@H](CCC(=O)O)C(=O)N[C@@H](CC(C)C)C(=O)N[C@@H](CCC(N)=O)C(=O)N[C@@H](CCCNC(=N)N)C(=O)N[C@@H](Cc1ccc(O)cc1)C(=O)N[C@@H](Cc1ccc(O)cc1)C(=O)N[C@H](C(=O)N[C@@H](CO)C(=O)N[C@@H](CC(C)C)C(=O)N[C@@H](CCCNC(=N)N)C(=O)N[C@@H](Cc1c[nH]cn1)C(=O)N[C@@H](Cc1ccc(O)cc1)C(=O)N[C@@H](Cc1ccc(O)cc1)C(=O)N[C@@H](CC(N)=O)C(=O)N[C@@H](Cc1c[nH]c2ccccc12)C(=O)N[C@@H](CC(C)C)C(=O)N[C@H](C(=O)N[C@@H](CCCNC(=N)N)C(=O)N[C@@H](CCC(N)=O)C(=O)N[C@@H](CCCNC(=N)N)C(=O)N[C@@H](Cc1ccc(O)cc1)C(N)=O)[C@@H](C)O)C(C)C)C(C)C` [Compound 5, N{alpha-4}-(3-methylbutanoyl)-N{epsilon-7}-[2-(2-{2-[2-(2-{2-[(4S)-4-carboxy-4-(17-carboxyheptadecanamido)butanamido]ethoxy}ethoxy)acetamido]ethoxy}ethoxy)acetamido]-[4A,7K,9E,11E,12V,18Q,22V,28Y,30W,31L]hPYY (4-36)] (Isovaleryl-APEK([AEEA-AEEA-γGlu-C18 diacid])PEEEVSPEELQRYYVSLRHYYNWLTRQRY-NH2), 7.83.
Take `CC(C)CC(=O)N[C@@H](C)C(=O)N1CCC[C@H]1C(=O)N[C@@H](CCC(=O)O)C(=O)N[C@@H](CCCCNC(=O)COCCOCCNC(=O)COCCOCCNC(=O)CC[C@H](NC(=O)CCCCCCCCCCCCCCCCC(=O)O)C(=O)O)C(=O)N1CCC[C@H]1C(=O)N[C@@H](CCC(=O)O)C(=O)N[C@@H](CCC(=O)O)C(=O)N[C@@H](CCC(=O)O)C(=O)N[C@@H](C)C(=O)N[C@@H](CO)C(=O)N1CCC[C@H]1C(=O)N[C@@H](CCC(=O)O)C(=O)N[C@@H](CCC(=O)O)C(=O)N[C@@H](CC(C)C)C(=O)N[C@@H](CCC(N)=O)C(=O)N[C@@H](CCCNC(=N)N)C(=O)N[C@@H](Cc1ccc(O)cc1)C(=O)N[C@@H](Cc1ccc(O)cc1)C(=O)N[C@H](C(=O)N[C@@H](CO)C(=O)N[C@@H](C)C(=O)N[C@@H](CCCNC(=N)N)C(=O)N[C@@H](Cc1c[nH]cn1)C(=O)N[C@@H](Cc1ccc(O)cc1)C(=O)N[C@@H](Cc1ccc(O)cc1)C(=O)N[C@@H](CC(N)=O)C(=O)N[C@@H](Cc1c[nH]c2ccccc12)C(=O)N[C@@H](CC(C)C)C(=O)N[C@H](C(=O)N[C@@H](CCCNC(=N)N)C(=O)N[C@@H](CCC(N)=O)C(=O)N[C@@H](CCCNC(=N)N)C(=O)N[C@@H](Cc1ccc(O)cc1)C(N)=O)[C@@H](C)O)C(C)C` [Compound 6, N{alpha-4}-(3-methylbutanoyl)-N{epsilon-7}-[2-(2-{2-[2-(2-{2-[(4S)-4-carboxy-4-(17-carboxyheptadecanamido)butanamido]ethoxy}ethoxy)acetamido]ethoxy}ethoxy)acetamido]-[4A,7K,9E,11E,18Q,22V,24A,28Y,30W,31L]hPYY (4-36)] (Isovaleryl-APEK([AEEA-AEEA-γGlu-C18 diacid])PEEEASPEELQRYYVSARHYYNWLTRQRY-NH2): the pKi is 8.19.
